Publication PMC8781550, “The Effect of pH and Sodium Caseinate on the Aqueous Solubility, Stability, and Crystallinity of Rutin towards Concentrated Colloidally Stable Particles for the Incorporation into Functional Foods” (Molecules, 2022)

How the values were obtained:
[1] = Crystallinity of dried rutin at each pH (XRD); format: physicochemical
Procedure: To study the crystallinity of rutin at each pH, samples of rutin at each pH were stored in a desiccator with silica beads (25 °C) to dry and crystallize. The dried materials were ground using a mortar and pestle and then were analysed for the degree of crystallinity at 20.0 °C using a Rigaku Rapid image-plate detector (Rigaku, The Woodlands, TX, USA) set at 127.40 mm. The Cu Kα radiation (λ = 1.540562 Å) was generated by a Rigaku MicroMax007 microfocus (rotating anode generator; Rigaku, The Woodlands, TX, USA) and an Osmic-Rigaku metal multi-layer optic device (Rigaku, USA) was used for focusing and monochromation. Samples were mounted in Hampton CryoLoops (Hampton Research, Aliso Viejo, CA, USA), and data collection was under the control of RAPID II software (Version 2.4.2, Rigaku, USA). The data were background corrected and converted to a line profile with 2DP programme (Version 1.0.3.4, Rigaku, USA), and the resulting diffractograms were compared using CrystalDiffract software (Version 6.5.5, CrystalMaker Software Ltd., Oxfordshire, UK). A 2θ angle range of 5° to 100° was used for the analysis of all the samples.

[2] = set-up: method as in doi:10.1016/j.foodhyd.2019.05.032; conditions: cited from earlier work
[3] = Aqueous solubility (recovery) of rutin at various pH (centrifugation, HPLC of supernatant); format: physicochemical
Procedure: Rutin was mixed with Milli-Q® (MilliporeSigma, Burlington, MA, USA) water at various concentrations (0.01 to 10% w/v) and the pH of the mixtures increased gradually (while stirring at 300 rpm) until the full dissolution was achieved. […] Then, the pH was increased further until the complete dissolution. […] Samples were taken at each pH point (i.e., pH 1–11) and at each concentration of rutin.
In order to determine the optimum amount of both rutin and NaCas to achieve the best loading, various concentrations of rutin (0.01–4% w/v) were dissolved in a solution of NaCas (0.2–8% w/v) at pH 11, which was then acidified down to pH 6, where the precipitates were formed. A duration of 15 min between each pH adjustment was allowed, and samples were taken along the process at every pH point (i.e., pH 11, 9, 8, 7, and 6; pH below 6 was not considered as the sample withdrawal was not practical due to the co-precipitation of NaCas and rutin). The withdrawn samples were left for 30 min for the complete formation of the possible precipitates. Each sample was then divided into two equal parts; the first part was centrifuged (3000× g, 20 °C, 10 min) in the Amicon Ultra-15 Centrifugal Filter Units containing a cellulose membrane with a molecular weight cut-off of […] (Ultracel-100K, Millipore, Burlington, MA, USA) to remove both precipitates and colloidally stable complexes, while the second part was simply filtered using a 0.45 µm membrane (Millipore) to remove the precipitates only. The concentration of rutin in the ultrafiltrates, as well as the filtrates (the second part), was determined using HPLC analysis, and the rutin recovery% was calculated correspondingly. As the control, the same concentration of rutin (1%) was also treated and analysed the same way as the rutin–NaCas mixture. In this study, for simplicity, the recovery % of rutin is referred to as its solubility.

[4] = Chemical stability of rutin at alkaline pH (HPLC); format: physicochemical; conditions: rutin 1% w/v dissolved at pH 11.0 and kept for 30 min
[5] = set-up: method as in PMID 25496805, PMID 20201551; conditions: cited from earlier work
[6] = cited from earlier work

With C[C@@H]1O[C@@H](OC[C@H]2O[C@@H](Oc3c(-c4ccc(O)c(O)c4)oc4cc(O)cc(O)c4c3=O)[C@H](O)[C@@H](O)[C@@H]2O)[C@H](O)[C@H](O)[C@H]1O [rutin] the “Crystallinity of dried rutin particles (XRD)” value (from here on “Crystallinity”) ([1]; pH 11 and 10) was “amorphous”, the “Crystallinity” value ([1]; pH < 8) was “crystalline form” and the “Crystallinity” value ([1]; pH close to 1.0) was “crystalline rutin was not present”. The Solubility in ethanol [2] was “about 4 % w/v”, the “Aqueous solubility of rutin” value ([3]; 0.01% w/v rutin in water, regardless of the pH) was “most of the rutin was soluble” and the “Aqueous solubility (recovery): fraction of rutin soluble” value ([3]; dispersion containing 5% rutin, pH 9) was “about 90%”. For the same molecule, the “Concentration of rutin that could be dissolved” value ([3]; pH 11.0) was 10 % (w/v), the “Solubility (recovery) of rutin” value ([3]; pH < 6, 1% w/v rutin, regardless of association with NaCas) was “almost all rutin was precipitated” and the “Decrease in initial concentration of rutin (chemical stability)” value [4] was roughly 10%. For the same molecule, the logP [5] was 0.15, the Decomposition of rutin ([6]; 0.2 M NaOH, with or without beta-cyclodextrin) was “slow decomposition” and the Rutin concentration remaining ([6]; after 5 h, pH constantly adjusted to 8) was “approximately 20%”. For the same molecule, the Rutin concentration ([6]; weak acidic conditions (pH 5)) was “remained almost unchanged”.
